Data on 41 molecules can be found in ChEMBL document CHEMBL5576160, “N-Substituted Pyrrole-Based Heterocycles as Broad-Spectrum Filoviral Entry Inhibitors” (J Med Chem, 2024).

The EC50 is the concentration needed to bring the measured effect to its halfway point. One may read the CC50 as the concentration that lowers cell viability or growth by half.

Series [1] concerns Ebolavirus. In words: Antiviral activity against pseudotyped EBOV Mayinga infected in human A549 cells assessed as inhibition of Pseudoviral entry incubated for 40 hrs. The conditions noted are these: Orthoebolavirus, A549, 40 h. It counts as functional, organism-based.
Series [2] in a line: Selectivity index, ratio of CC50 for cytotoxicity against human A549 cells to EC50 for antiviral activity against pseudotyped EBOV Mayinga infected in human A549 cells assessed as inhibition of Pseudoviral entry. It counts as toxicity, cell-based. The conditions noted are these: read-out: Ratio CC50/EC50.
The subject of series [3] is Marburgvirus. In words: Antiviral activity against pseudotyped Marburgvirus Angola infected in human A549 cells assessed as inhibition of Pseudoviral entry incubated for 40 hrs. The conditions noted are these: Orthomarburgvirus, A549, 40 h. The series is classed as functional, organism-based.
Series [4] can be described thus: Selectivity index, ratio of CC50 for cytotoxicity against human A549 cells to EC50 for antiviral activity against pseudotyped Marburgvirus Angola infected in human A549 cells assessed as inhibition of Pseudoviral entry. It counts as toxicity, cell-based. The conditions noted are these: read-out: Ratio CC50/EC50.
For series [5], the system named is Sudan ebolavirus. Nature of the series: Antiviral activity against pseudotyped Sudan ebolavirus Gulu infected in human A549 cells assessed as inhibition of viral growth. It counts as functional, organism-based.
Series [6] has as its system Tai Forest ebolavirus. Nature of the series: Antiviral activity against pseudotyped Tai Forest ebolavirus infected in human A549 cells assessed as inhibition of viral growth. The series is classed as functional, organism-based.
Series [7] relates to A549. Nature of the series: Cytotoxicity against human A549 cells assessed as as reduction in cell viability incubated for 48 hrs by celltiter-glo assay. The series is classed as functional. (In general: Cellular ATP, detected with luciferase, serves as a proxy for viable cell number.)

Some results are limits rather than exact numbers.

For the molecule `CCN(CC)CCNC(=O)c1cc2occc2n1Cc1ccc(Cl)cc1`, the EC50 in series [1] is 1.61 µM; in series [3], 3.67 µM. For the same molecule, the selectivity ratio came to 38 in series [2] and 17 in series [4].
On to `CN(C)C1CCN(C(=O)c2cc3ccccc3n2Cc2ccc(Cl)cc2)CC1`, for which the EC50 in series [1] is 1.38 µM; in series [3], 6.83 µM; in series [5], 0.884 µM; in series [6], 4.95 µM. In addition, the selectivity ratio in series [2] is 44; in series [4], less than 1.
Regarding `CN(C)C1CCN(C(=O)c2cc3ccccc3n2C)CC1`, the EC50 in series [1] was 16.5 µM; in series [3] it was greater than 100 µM. The values for the selectivity ratio in series [2] and in series [4] were greater than 6.1 and less than 1, respectively.
Taken in the same sequence, the figures for `CN1CCCN(C(=O)c2cc3sccc3n2Cc2ccc(Cl)cc2)CC1` were 4.16 µM, 10.8 µM, 24 and 9.3.
Taken in the same sequence, the figures for `CN(C)C1CCN(C(=O)c2cc3occc3n2C(=O)OCc2ccccc2)CC1` were 1.68 µM, 29.8 µM, greater than 60 and greater than 3.4.
In the case of `CN(C)CCNC(=O)c1cc2occc2n1Cc1cccc(C(F)(F)F)c1`, the EC50 in series [1] was found to be 1.68 µM; in series [3], 4.29 µM. Further, the selectivity ratio amounted to 32 in series [2] and 13 in series [4].
In the same order, the values of `CN(C)CCCNC(=O)c1cc2occc2n1Cc1ccc(Cl)cc1` are 2.01 µM, 5.52 µM, 36 and 13.
For the molecule `CN(C)CCNC(=O)c1cc2sccc2n1Cc1ccc(Cl)cc1`, the values for the EC50 in series [1] and in series [3] were 2.17 µM and 3.14 µM, respectively. The selectivity ratio in series [2] was found to be 19; in series [4] it was 13.
`CN1CCN(C(=O)c2cc3sccc3n2Cc2ccc(Cl)cc2)CC1`: the EC50 in series [1] is 9.75 µM; in series [3] it was 24.7 µM. Further, the selectivity ratio in series [2] was found to be 10; in series [4] it was 4.1.
With `CN(C)C1CCN(C(=O)c2cc3ccccc3n2Cc2ccc(-c3ccccc3)cc2)CC1`, the EC50 in series [1] stood at 1.06 µM; in series [3], 1.99 µM. For the same molecule, the selectivity ratio turned out to be 14 in series [2] and 7.2 in series [4].
With `CN(C)CCNC(=O)c1cc2occc2n1C(=O)OCc1ccccc1`, the EC50 in series [1] stood at 8.11 µM; in series [3], 31.1 µM. In addition, the results for the selectivity ratio in series [2] and in series [4] were greater than 12 and greater than 3.1, respectively.
In the same order, the values of `CN(C)C1CCN(C(=O)c2cc3occc3n2Cc2ccc(F)cc2)CC1` are 3.93 µM, 11.4 µM, greater than 25 and greater than 8.8.
For the molecule `CN1CCCN(C(=O)c2cc3occc3n2Cc2cccc(C(F)(F)F)c2)CC1`, the concentration giving a half-maximal response (EC50) in series [1] amounted to 1.73 µM; in series [3] it was 8.64 µM. For the same molecule, the results for the selectivity ratio in series [2] and in series [4] were 40 and 8.1, respectively.
Take `O=C(c1cc2sccc2n1Cc1ccc(Cl)cc1)N1CCN(C2CCCCC2)CC1`: the EC50 in series [1] came out at 10.9 µM; in series [3] it was 13.9 µM. In addition, the selectivity ratio in series [2] amounted to 4.9; in series [4], 3.8.
In the case of `CC(C)N1CCN(C(=O)c2cc3occc3n2Cc2cccc(C(F)(F)F)c2)CC1`, the values for the EC50 in series [1] and in series [3] were 3.43 µM and 22.2 µM, respectively. Besides, the selectivity ratio worked out at 29 in series [2] and 4.4 in series [4].
Taken in the same sequence, the figures for `CN1CCN(CCCNC(=O)c2cc3occc3n2Cc2ccc(Cl)cc2)CC1` were 1.86 µM, 7.7 µM, 42 and 10.
For `CN(C)CCNC(=O)c1cc2ccccc2n1Cc1ccc(F)cc1`, the EC50 in series [1] was 3.39 µM; in series [3], 4.21 µM. Besides, the figures for the selectivity ratio in series [2] and in series [4] were 16 and 8.9, respectively.
Turning to `CN(C)CCNC(=O)c1cc2occc2n1Cc1ccc(F)cc1`, the figures for the EC50 in series [1] and in series [3] were 2.62 µM and 10.8 µM, respectively. The selectivity ratio is greater than 38 in series [2] and greater than 93 in series [4].
Taken in the same sequence, the figures for `CN(C)CCNC(=O)c1cc2occc2n1Cc1ccccc1` were 4.51 µM, 25.6 µM, 22 and 3.9.
Taken in the same sequence, the figures for `CN(C)CCNC(=O)c1cc2ccccc2n1Cc1ccccc1` were 2.74 µM, 6.8 µM, 24 and 9.5.
Consider `CN(C)C1CCN(C(=O)c2cccn2Cc2ccccc2)CC1`, for which the EC50 in series [1] worked out at 1.11 µM; in series [3] it was 17.8 µM. In addition, the selectivity ratio in series [2] stood at 90; in series [4], 5.6.
In the same order, the values of `CN(C)CCNC(=O)c1cn(Cc2ccccc2)c2ccccc12` are 3.28 µM, 11.1 µM, 21 and 6.1.
Taken in the same sequence, the figures for `O=C(c1cc2ccccc2n1Cc1ccccc1)N1CCCCC1` were 9.11 µM, greater than 100 µM, 11 and 11.
Turning to `CN(C)C1CCN(C(=O)c2cn(Cc3ccc(F)cc3)c3ccccc23)CC1`, the values for the concentration giving a half-maximal response (EC50) in series [1] and in series [3] were 2.54 µM and 10.9 µM, respectively. For the same molecule, the selectivity ratio amounted to 30 in series [2] and 6.9 in series [4].
Regarding `CN(C)CCNC(=O)c1cc2occc2n1Cc1ccc(Cl)c(C(F)(F)F)c1`, the EC50 turned out to be 1.9 µM in series [1] and 3.16 µM in series [3]. For the same molecule, the selectivity ratio in series [2] stood at 17; in series [4], 10.
Consider `O=C(NCCN1CCC1)c1cc2occc2n1Cc1cccc(C(F)(F)F)c1`, for which the figures for the EC50 in series [1] and in series [3] were 1.94 µM and 6.22 µM, respectively. The selectivity ratio in series [2] amounted to 20; in series [4], 6.2.
Taken in the same sequence, the figures for `CN(C)C1CCN(C(=O)CN(Cc2ccccc2)c2ccccc2)CC1` were 10.7 µM, greater than 100 µM, 9.4 and less than 1.
With `CN(C)C1CCN(C(=O)c2cc3ccccc3n2Cc2ccncc2)CC1`, the EC50 in series [1] came out at 162 µM; in series [3], 3.78 µM. Further, the selectivity ratio was greater than 6.2 in series [2] and 27 in series [4].
Take `CN(C)C1CCN(C(=O)c2cc3occc3n2Cc2cccc(C(F)(F)F)c2)CC1`: the 50% effective concentration (EC50) in series [1] amounted to 1.5 µM; in series [3], 9.72 µM. Moreover, the selectivity ratio in series [2] came to 67; in series [4] it was 10. For the same molecule, the CC50 in series [7] was roughly 100 µM.
With `CN(C)CCNC(=O)c1cc2occc2n1C`, the EC50 in series [1] and in series [3] was greater than 100 µM throughout. Further, the selectivity ratio in series [2] and in series [4] was 1 in each case.
For `CN(C)C1CCN(C(=O)c2cc3ccccc3n2Cc2cccnc2)CC1`, the 50% effective concentration (EC50) stood at 5.3 µM in series [1] and 38.6 µM in series [3]. Moreover, the selectivity ratio in series [2] was greater than 19; in series [4], 2.6.
As to `CC1CCN(c2ccc(NC(=O)c3cc4occc4n3Cc3ccc(Cl)cc3)cc2C(F)(F)F)CC1`, the EC50 in series [1] was 4.03 µM; in series [3], 13.6 µM. In addition, the selectivity ratio in series [2] came out at 25; in series [4] it was 7.4. Moreover, in series [7], the half-maximal cytotoxic concentration (CC50) is greater than 100 µM.
For `O=C(NCCCn1ccnc1)c1cc2occc2n1Cc1ccc(Cl)cc1`, the results for the EC50 in series [1] and in series [3] were 6.24 µM and 13.2 µM, respectively. The selectivity ratio in series [2] came to 16; in series [4] it was 7.6.
As for `CN1CCCN(C(=O)c2cc3occc3n2Cc2ccc(Cl)cc2)CC1`, the EC50 in series [1] stood at 1.41 µM; in series [3] it was 10.5 µM. For the same molecule, the values for the selectivity ratio in series [2] and in series [4] were 71 and 9.6, respectively.
Take `O=C(Nc1ccc(N2CCOCC2)cc1)c1cc2occc2n1Cc1ccc(Cl)cc1`: the EC50 in series [1] and in series [3] was greater than 100 µM throughout. Moreover, the selectivity ratio in series [2] and in series [4] was 1 throughout. The CC50 in series [7] is greater than 100 µM.
In the case of `CCOc1ncc(NC(=O)c2cc3occc3n2Cc2ccc(Cl)cc2)cc1F`, the EC50 in series [1] is 2.43 µM; in series [3], greater than 100 µM. In addition, the selectivity ratio stood at 41 in series [2] and 1 in series [4]. The CC50 in series [7] is greater than 100 µM.
`CN(C)CC1CN(C(=O)c2cc3occc3n2Cc2ccc(Cl)cc2)C1`: the EC50 in series [1] came out at 1.23 µM; in series [3] it was 4.57 µM. Further, the selectivity ratio in series [2] was 46; in series [4] it was 12.
On to `CN(C)CCNC(=O)c1cn(Cc2ccc(F)cc2)c2ccccc12`, for which the EC50 in series [1] amounted to 3 µM; in series [3], 6.47 µM. Besides, the selectivity ratio came out at 21 in series [2] and 8.9 in series [4].
As for `O=C(NCCCn1ccnc1)c1cc2occc2n1Cc1cccc(C(F)(F)F)c1`, the EC50 in series [1] was found to be 4.32 µM; in series [3], 9.78 µM. In addition, the selectivity ratio in series [2] turned out to be 13; in series [4], 5.9.
Turning to `CC(C)N1CCN(C(=O)c2cc3sccc3n2Cc2ccc(Cl)cc2)CC1`, the concentration giving a half-maximal response (EC50) amounted to 5.84 µM in series [1] and 32.8 µM in series [3]. Moreover, the values for the selectivity ratio in series [2] and in series [4] were 17 and 3.1, respectively.
On to `CN(C)CCNC(=O)c1cc2ccccc2n1Cc1ccc(-c2ccccc2)cc1`, for which the results for the EC50 in series [1] and in series [3] were 2.77 µM and 3.1 µM, respectively. Further, the selectivity ratio worked out at 5.9 in series [2] and 14 in series [4].
